Patent US20260226071A1, “2, 4-DIANILINOPYRIMIDINE-BASED AURORA-A KINASE SELECTIVE DEGRADATION INDUCING COMPOUNDS” (UPPTHERA, INC., priority 2023, published 2026)

Legend:
Aurora kinase A (AURKA) = molecular target: T1, Aurora kinase A (AURKA) (Homo sapiens, UniProt O14965); assay: Luciferase assay for AURKA in HeLa LgBit (AURKA-HiBit KI) cell line; type: cell-based; conditions: HeLa LgBit (AURKA-HiBit KI) cells, measured after 12 hours
T1 construct: endogenous in cells; host or cells: HeLa LgBit (AURKA-HiBit KI), CRISPR/Cas9 knock-in at the endogenous AURKA locus
T1 sequence (O14965 1-403): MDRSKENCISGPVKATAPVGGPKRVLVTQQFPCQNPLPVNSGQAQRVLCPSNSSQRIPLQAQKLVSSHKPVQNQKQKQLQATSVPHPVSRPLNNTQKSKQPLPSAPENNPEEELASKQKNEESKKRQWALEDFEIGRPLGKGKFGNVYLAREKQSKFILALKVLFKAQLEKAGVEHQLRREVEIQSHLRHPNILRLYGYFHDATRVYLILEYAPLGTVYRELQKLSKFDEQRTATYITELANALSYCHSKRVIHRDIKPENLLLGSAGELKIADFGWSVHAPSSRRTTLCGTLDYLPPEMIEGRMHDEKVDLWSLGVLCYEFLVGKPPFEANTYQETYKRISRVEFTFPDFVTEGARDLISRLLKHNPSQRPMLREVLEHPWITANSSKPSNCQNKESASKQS
Procedure, shortened: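 Test compounds (10 nM or 100 nM) added to AURKA-HiBit knock-in HeLa LgBit cells that had been pre-loaded with Endurazine for 2 h following an 18 h culture at 3×10^4 cells. Endogenous AURKA-HiBit level followed by luminescence (470-480 nm), measured after 12 h.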

NCI-H446 cell line = assay: Cell viability assay for NCI-H446 cell line; type: cell-based; conditions: Homo sapiens, NCI-H446, 120 h; H446 cells, 5 days culture, EZ-Cytox; read-out: IC50 value (Level)
Procedure, shortened: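 Viability was measured by absorbance at 450 nm after 4 h with EZ-Cytox, following 5-day exposure of NCI-H446 cells (RPMI 1640, 10% FBS, 37 °C, 5% CO2) to 3-fold serial dilutions from 1000 nM down to 0.15 nM, added 24 h post-seeding.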

luminescence value (Level) (Aurora kinase A (AURKA); 10 nM compound)	luminescence value (Level) (Aurora kinase A (AURKA); 100 nM compound)	Compound	IC50 (NCI-H446 cell line) [nM]
A (A is <0.3)	A (A is <0.2)	C[C@@H](CN1CCN(c2ccc(C3CCC(=O)NC3=O)cc2)CC1)C1CCN(NC(=O)c2ccc(Nc3ncc(F)c(Nc4ccc(C(=O)Nc5ccccc5Cl)cc4)n3)cc2)CC1 (stereo partly drawn) [Compound 79, N-(2-chlorophenyl)-4-((2-((4-((4-((2R)-1-(4-(4-(2,6-dioxopiperidin-3-yl)phenyl)piperazin-1-yl)propan-2-yl)piperidin-1-yl)carbamoyl)phenyl)amino)-5-fluoropyrimidin-4-yl)amino)benzamide]	< 50
A (A is <0.3)	A (A is <0.2)	CN(CC1CCN(c2ccc(C3CCC(=O)NC3=O)cc2F)CC1)[C@H]1CC[C@H](NC(=O)c2ccc(Nc3ncc(F)c(Nc4ccc(C(=O)Nc5ccccc5Cl)cc4)n3)cc2)CC1 (stereo partly drawn) [Compound 80, N-(2-chlorophenyl)-4-((2-((4-(((1r,4r)-4-(((1-(4-(2,6-dioxopiperidin-3-yl)-2-fluorophenyl)piperidin-4-yl)methyl)(methyl)amino)cyclohexyl)carbamoyl)phenyl)amino)-5-fluoropyrimidin-4-yl)amino)benzamide]	50 to 100
A (A is <0.3)	A (A is <0.2)	CN(CC1CCN(c2ccc(C3CCC(=O)NC3=O)cc2F)CC1)C1CCN(NC(=O)c2ccc(Nc3ncc(F)c(Nc4ccc(C(=O)Nc5ccccc5Cl)cc4)n3)cc2)CC1 (stereo not drawn) [Compound 81, N-(2-chlorophenyl)-4-((2-((4-((4-(((1-(4-(2,6-dioxopiperidin-3-yl)-2-fluorophenyl)piperidin-4-yl)methyl)(methyl)amino)piperidin-1-yl)carbamoyl)phenyl)amino)-5-fluoropyrimidin-4-yl)amino)benzamide]	< 50
A (A is <0.3)	A (A is <0.2)	O=C1CCC(c2ccc(N3CCN(CCC4CCN(NC(=O)c5ccc(Nc6ncc(F)c(Nc7ccc(C(=O)Nc8ccccc8Cl)cc7)n6)cc5)CC4)CC3)cc2F)C(=O)N1 (stereo not drawn) [Compound 82, N-(2-chlorophenyl)-4-((2-((4-((4-(2-(4-(4-(2,6-dioxopiperidin-3-yl)-3-fluorophenyl)piperazin-1-yl)ethyl)piperidin-1-yl)carbamoyl)phenyl)amino)-5-fluoropyrimidin-4-yl)amino)benzamide]	< 50
B (B is 0.3 to 0.5)	A (A is <0.2)	O=C1CCC(c2ccc(N3CCN(CCC4CCN(NC(=O)c5ccc(Nc6ncc(F)c(Nc7ccc(C(=O)Nc8ccccc8Cl)cc7)n6)cn5)CC4)CC3)cc2)C(=O)N1 (stereo not drawn) [Compound 83, 5-[[4-[4-[(2-chlorophenyl)carbamoyl]anilino]-5-fluoro-pyrimidin-2-yl]amino]-N-[4-[2-[4-[4-(2,6-dioxo-3-piperidyl)phenyl]piperazin-1-yl]ethyl]-1-piperidyl]pyridine-2-carboxamide]	> 200
B (B is 0.3 to 0.5)	A (A is <0.2)	Cc1cc(N2CCN(CCC3CCN(NC(=O)c4ccc(Nc5ncc(F)c(Nc6ccc(C(=O)Nc7ccccc7Cl)cc6)n5)cc4)CC3)CC2)ccc1NC1CCC(=O)NC1=O (stereo not drawn) [Compound 85, N-(2-chlorophenyl)-4-((2-((4-((4-(2-(4-(4-((2,6-dioxopiperidin-3-yl)amino)-3-methylphenyl)piperazin-1-yl)ethyl)piperidin-1-yl)carbamoyl)phenyl)amino)-5-fluoropyrimidin-4-yl)amino)benzamide]	150 to 200
A (A is <0.3)	A (A is <0.2)	O=C1CCC(Nc2ccc(N3CCN(CC[C@H]4CC[C@H](NC(=O)c5ccc(Nc6ncc(F)c(Nc7ccc(C(=O)Nc8ccccc8Cl)cc7)n6)cc5)CC4)CC3)c(F)c2)C(=O)N1 (stereo partly drawn) [Compound 86, N-(2-chlorophenyl)-4-((2-((4-(((1r,4r)-4-(2-(4-(4-((2,6-dioxopiperidin-3-yl)amino)-2-fluorophenyl)piperazin-1-yl)ethyl)cyclohexyl)carbamoyl)phenyl)amino)-5-fluoropyrimidin-4-yl)amino)benzamide]	50 to 100
A (A is <0.3)	A (A is <0.2)	O=C1CCC(c2ccc(N3CCN(CCC4CCN(NC(=O)c5ccc(Nc6ncc(F)c(Nc7ccc(C(=O)Nc8ccccc8Cl)cc7)n6)cc5)CC4)CC3)cn2)C(=O)N1 (stereo not drawn) [Compound 88, N-(2-chlorophenyl)-4-((2-((4-((4-(2-(4-(6-(2,6-dioxopiperidin-3-yl)pyridin-3-yl)piperazin-1-yl)ethyl)piperidin-1-yl)carbamoyl)phenyl)amino)-5-fluoropyrimidin-4-yl)amino)benzamide]	< 50
A (A is <0.3)	A (A is <0.2)	O=C1CCC(c2ccc(N3CCN(CCC4CCN(NC(=O)c5ccc(Nc6ncc(F)c(Nc7ccc(C(=O)Nc8ccccc8F)cc7)n6)cc5)CC4)CC3)cc2)C(=O)N1 (stereo not drawn) [Compound 90, 4-[[2-[4-[[4-[2-[4-[4-(2,6-dioxo-3-piperidyl)phenyl]piperazin-1-yl]ethyl]-1-piperidyl]carbamoyl]anilino]-5-fluoro-pyrimidin-4-yl]amino]-N-(2-fluorophenyl)benzamide]	< 50
A (A is <0.3)	A (A is <0.2)	O=C1CCC(c2ccc(N3CCN(CCC4CCN(NC(=O)c5ccc(Nc6ncc(F)c(Nc7ccc(NC(=O)c8ccccc8Cl)cc7)n6)cc5)CC4)CC3)cc2)C(=O)N1 (stereo not drawn) [Compound 93, 2-chloro-N-(4-((2-((4-((4-(2-(4-(4-(2,6-dioxopiperidin-3-yl)phenyl)piperazin-1-yl)ethyl)piperidin-1-yl)carbamoyl)phenyl)amino)-5-fluoropyrimidin-4-yl)amino)phenyl)benzamide]	< 50
A (A is <0.3)	A (A is <0.2)	O=C1CC[C@H](Nc2ccc(N3CCN(CCC4CCN(NC(=O)c5ccc(Nc6ncc(F)c(Nc7ccc(C(=O)Nc8ccccc8Cl)cc7)n6)cc5)CC4)CC3)c(F)c2)C(=O)N1 [Compound 94, (S)—N-(2-chlorophenyl)-4-((2-((4-((4-(2-(4-(4-((2,6-dioxopiperidin-3-yl)amino)-2-fluorophenyl)piperazin-1-yl)ethyl)piperidin-1-yl)carbamoyl)phenyl)amino)-5-fluoropyrimidin-4-yl)amino)benzamide]	< 50
B (B is 0.3 to 0.5)	A (A is <0.2)	O=C1CC[C@H](Nc2ccc(N3CCN(CCC4CCN(NC(=O)c5ccc(Nc6ncc(F)c(Nc7ccc(C(=O)Nc8ccccc8Cl)cc7)n6)cc5)CC4)CC3)cc2F)C(=O)N1 [Compound 95, (S)—N-(2-chlorophenyl)-4-((2-((4-((4-(2-(4-(4-((2,6-dioxopiperidin-3-yl)amino)-3-fluorophenyl)piperazin-1-yl)ethyl)piperidin-1-yl)carbamoyl)phenyl)amino)-5-fluoropyrimidin-4-yl)amino)benzamide]	50 to 100
A (A is <0.3)	A (A is <0.2)	O=C1CCC(c2ccc(N3CCC(O)(CCC4CCN(NC(=O)c5ccc(Nc6ncc(F)c(Nc7ccc(C(=O)Nc8ccccc8Cl)cc7)n6)cc5)CC4)CC3)c(F)c2)C(=O)N1 (stereo not drawn) [Compound 96, N-(2-chlorophenyl)-4-((2-((4-((4-(2-(1-(4-(2,6-dioxopiperidin-3-yl)-2-fluorophenyl)-4-hydroxypiperidin-4-yl)ethyl)piperidin-1-yl)carbamoyl)phenyl)amino)-5-fluoropyrimidin-4-yl)amino)benzamide]	< 50
B (B is 0.3 to 0.5)	A (A is <0.2)	O=C1CCC(c2ccc(N3CCC(CN4CC5(CCN(NC(=O)c6ccc(Nc7ncc(F)c(Nc8ccc(C(=O)Nc9ccccc9Cl)cc8)n7)cc6)CC5)C4)CC3)c(F)c2)C(=O)N1 (stereo not drawn) [Compound 97, N-(2-chlorophenyl)-4-((2-((4-((2-((1-(4-(2,6-dioxopiperidin-3-yl)-2-fluorophenyl)piperidin-4-yl)methyl)-2,7-diazaspiro[3.5]nonan-7-yl)carbamoyl)phenyl)amino)-5-fluoropyrimidin-4-yl)amino)benzamide]	50 to 100
A (A is <0.3)	A (A is <0.2)	O=C1CCC(c2ccc(N3CCN(CCC4CCN(NC(=O)c5ccc(Nc6ncc(F)c(Nc7ccc(C(=O)Nc8ccccc8Cl)cn7)n6)cc5)CC4)CC3)cc2)C(=O)N1 (stereo not drawn) [Compound 98, N-(2-chlorophenyl)-6-((2-((4-((4-(2-(4-(4-(2,6-dioxopiperidin-3-yl)phenyl)piperazin-1-yl)ethyl)piperidin-1-yl)carbamoyl)phenyl)amino)-5-fluoropyrimidin-4-yl)amino) nicotinamide]	100 to 150
